Results as given in patent publication US20050108047A1, “Business methods for commercializing antibiotics” (priority 2003, published 2005).

Tested on: E. coli strain MG1655 and isogenic loss of function strains
Experiment: Stressful Lifestyle Adaptive Mutation (SLAM) assay with ciprofloxacin
Type: cell-based
Procedure: […]. Five colonies of each strain, selected from 30 ug/mL kan plates, were grown for 24 hours in LB at 37° C. Dilutions of each culture were made in duplicate and plated on LB plates to determine the number of viable cells.
Also, two 150 μL cultures from each strain were plated on five additional plates for use in ‘survival’ experiments (see below). […] Every twenty-four hours for thirteen days post-plating, colonies were counted and marked and up to 10 representative colonies per strain were stocked in 15% glycerol and stored at −80° C., for use in the reconstruction experiments (see below). […]. After thirteen days, a reconstruction experiment [see FIG. 6; also see Bull, H J, Lombardo, M J, Rosenberg, S M: Stationary-phase mutation in the bacterial chromosome: recombination protein and DNA polymerase IV dependence. Proc Natl Acad Sci USA 2001, 98:8334-8341; and Rosenberg, S M: Evolving responsively: adaptive mutation. Nature Rev Genet 2001, 2:504-515] was performed to determine which of the resistant colonies isolated had evolved resistance via adaptive mutation after exposure to the antibiotic. […]. Only those colonies that grew in a shorter time during the reconstruction experiment than in the original experiment were considered to have acquired an adaptive mutation, i.e. occurred after exposure to the antibiotic. […].
[…]. […]

Structure (SMILES): O=C(O)c1cn(C2CC2)c2cc(N3CCNCC3)c(F)cc2c1=O [ciprofloxacin]
- ability to evolve resistance to ciprofloxacin, LexA(Ind−) strain versus wild type (LexA S119A mutant, 35 ng/mL ciprofloxacin): more than two orders of magnitude less able to evolve resistance
- decrease in rate of evolving the ability to grow at 60 ng/mL ciprofloxacin, LexA mutant (mutants selected at 35 ng/mL ciprofloxacin): 300 fold
